This is an account of results in patent US4333930A, “Orthoarylideneaminophenethylamines and pharmaceutical compositions” (priority 1980, dated 1982).

For data set [1], the system named is number of escapes the animal made in 5 minutes. In words: Escape test, Table 3. Format: in vivo, mouse. The note with it: 5 min, read-out: % of activity (variation of the number of escapes). An excerpt: The products of the invention were always administered orally in 6% gum base.
The notation NS signifies that the difference between the results noted for the product and the results noted for the excipient alone is not significant at the threshold 0.05 according to the Student t Test.

In data set [2] the test system is trembling induced by oxotremorine. In words: Antagonism of trembling induced by oxotremorine, Table 7. The note with it: po, read-out: % of inhibition of trembling induced by oxotremorine. It is filed as in vivo. The gist of the method: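 Animal test of antagonism of oxotremorine-induced trembling; compounds given orally in 6% gum base. Value is % inhibition of trembling at each dose in mg/kg.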

Data set [3] has as its system salivation induced by pilocarpine. In words: Inhibition of salivation induced by pilocarpine (anticholinergic activity), Table 9. Particulars: oral. Format: in vivo. An excerpt:
(§1) The psychotropic profile of the present invention products has been characterized with the animals in numerous tests some of whose results are shown hereinafter. The products of the invention were always administered orally in 6% gum base.
Certain products manifest an anticholinergic activity evidenced in the inhibition test of salivation induced by pilocarpine (Table 9).
% of inhibition of salivation induced by
pilocarpine as a function of the dose
administered expressed in mg/kg

A further data set has as its system phenylbenzoquinone (PBQ). In words: Analgesic activity using phenylbenzoquinone (PBQ) as noxious agent, Table 2. It is filed as in vivo, male Swiss mouse. Particulars: Mus musculus; for inhibition in vivo at 100 mg/kg: read-out: % of analgesic activity, 100 mg/kg, male Swiss mouse, PBQ; for inhibition in vivo at 200 mg/kg: read-out: % of analgesic activity, 200 mg/kg, male Swiss mouse, PBQ. The gist of the method:
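Male Swiss mice were dosed with test products suspended in 6% gum base. Analgesic activity is given as % versus dose in mg/kg.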

The subject of the next data set is Swiss mice. The experiment in a line: Oral toxicity (mortality) in the mouse, Table 1. The note with it: 1000 mg/kg, 14 days, 20160 min. Format: in vivo. The gist of the method:
(§2)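 Groups of 5 male and 5 female specific-pathogen-free Swiss mice, fasted 24 hours, dosed intragastrically in 6% gum arabic at 0.1 ml per 10 g body weight. Mortality percentage was recorded at 14 days as a function of dose.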

Data set [4] in a line: Oral toxicity (mortality) in the mouse, Table 1. Format: in vivo. The note with it: mouse, in vivo, po, Swiss mice, 14 days. The procedure, abridged:
as §2

For data set [5], the system named is number of displacements of the animal. The experiment in a line: Four plates test (anxiolytic activity), Table 5. It is filed as in vivo. The note with it: oral, mouse. The gist of the method:
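Mouse four-plates anxiolytic test with compounds given orally in 6% gum base. Read-out is percent increase in the number of displacements of the animal, by dose in mg/kg.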

The subject of another data set is despair. In words: Test of despair (Porsolt), Table 8. Format: in vivo. The note with it: oral.
From the text: as §1
Certain tests made it possible to show antidepressive activities. These are tests of antagonism to the effects of reserpine, oxotremorine (according to Everett G. M. et al, Science, 1956, 124, 79 and Levy J. et al, Therapie 1965, 20, 265) and to despair (according to Porsolt P. D. et al, Eur. J. Pharmacol., 1978, 47, 379-91).
Test of despair: % of antagonism as a function
of the dose administered orally and expressed

The test system of data set [6] is stereotype induced by apomorphine. In words: Antagonism of the stereotype induced by apomorphine, Table 4. It is filed as in vivo.
From the text: as §1
% of activity vis-a-vis the stereotype
induced by apomorphine as a function of the
administered dose expressed in mg/kg

A further data set relates to catalepsy. In words: Catalepsy. Format: in vivo. Particulars: 400 and 600 mg/kg.
Data set [7] has as its system ptosis induced by reserpine. The experiment in a line: Antagonism of ptosis induced by reserpine, Table 6. The note with it: po, read-out: % of inhibition of ptosis induced by reserpine. Format: in vivo. The gist of the method: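 Compounds given orally in 6% gum base. Antagonism of reserpine-induced ptosis expressed as % inhibition versus oral dose.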

Like-named read-outs stand apart in the source and are kept apart here.

As usually defined, the mortality is the percentage killed. As to `CN(C)CCc1cc2c(cc1N=Cc1cccnc1)OCO2` [COR 01 170, 6-dimethylaminoethyl N-(pyridylidene-3)-1,3-benzodioxole-5-ylamine], the change in vivo at 100 mg/kg in [1] (Mus musculus, po) was -32%; in data set [2] it was -50%. Further, the change in vivo at 200 mg/kg is -59% in [1] (Mus musculus, po) and -78% in data set [2]. The change in vivo at 50 mg/kg in [2] was -40%. For the same molecule, the “% of inhibition of salivation induced by pilocarpine” value in data set [3] (100 mg/kg) is -18%; in data set [3] (200 mg/kg) it was -57%. In the data set on phenylbenzoquinone (PBQ), the inhibition in vivo at 100 mg/kg amounted to 30%. Also, the inhibition in vivo at 200 mg/kg in the data set on phenylbenzoquinone (PBQ) was found to be 39%. For the same molecule, the “% of mortality” value with Swiss mice was found to be 0%. In addition, the mortality at 336 h in [4] (1500 mg/kg) stood at 100%. The “% of increase in the number of displacements of the animal” value (“% of increase” for short) is recorded as “+18%” in data set [5] (25 mg/kg); “+57%” in data set [5] (40 mg/kg); “+36%” in data set [5] (50 mg/kg); “+69%” in [5] (60 mg/kg); “+72%” in [5] (75 mg/kg). Also, the figures for the “Test of despair: % of antagonism” value with despair (50 mg/kg), in the data set with despair (100 mg/kg) and in the data set with despair (200 mg/kg) were -39%, -39% and -33%, respectively.

For `CN(C)CCc1cc2c(cc1N=CC=Cc1ccccc1)OCO2` [COR 01 176], the “% of activity vis-a-vis the stereotype induced by apomorphine” value in data set [6] (200 mg/kg, oral) is reported as -64%. Further, in [6] (in words), the “antagonism vis-a-vis the stereotype with apomorphine” value is on record as “manifest an antagonism”. For the same molecule, in [1] (Mus musculus, po), the change in vivo at 0.5 mg/kg was -29%, the change in vivo at 1 mg/kg is -40%, the change in vivo at 3 mg/kg is -39% and the change in vivo at 5 mg/kg is -33%. For the same molecule, in data set [1] (Mus musculus, po), the change in vivo at 25 mg/kg is -32%, the change in vivo at 50 mg/kg was -37%, the change in vivo at 100 mg/kg was -33% and the change in vivo at 200 mg/kg is -43%. Also, in data set [2], the change in vivo at 50 mg/kg is -40%, the change in vivo at 100 mg/kg was -50% and the change in vivo at 200 mg/kg was -20%. Besides, the catalepsy result in the data set with catalepsy is on record as “slight catalepsy”. Besides, in the data set on phenylbenzoquinone (PBQ), the inhibition in vivo at 100 mg/kg is 23% and the inhibition in vivo at 200 mg/kg was 39%. Further, the mortality at 336 h in data set [4] (1000 mg/kg) came out at 0%. In data set [5] (3 mg/kg), the “% of increase” value is listed as “+101%”. The “% of increase” value in [5] (5 mg/kg) is given as “+117%”. The “% of increase” value in data set [5] (10 mg/kg) is given as “+72%”. Also, in [5] (20 mg/kg), the “% of increase” value is “+72%”. Also, the “% of increase” value in data set [5] (25 mg/kg) was “+66%”.

In the case of `CN(C)CCc1ccccc1N=Cc1cccnc1` [COR 01 184], the change in vivo at 50 mg/kg in data set [7] was -13%; in data set [1] (50 mg/kg, oral, mouse, 5 minutes), -34%; in data set [2], 0%. Moreover, the change in vivo at 100 mg/kg in data set [7] was -39%; in [1] (100 mg/kg, oral, mouse, 5 minutes), -47%; in data set [2], -22%. Also, the change in vivo at 200 mg/kg in [7] was -34%; in data set [1] (200 mg/kg, oral, mouse, 5 minutes), -46%; in data set [2], -17%. Moreover, the change in vivo at 5 mg/kg in [1] (5 mg/kg, oral, mouse, 5 minutes) was -34%. Besides, the change in vivo at 10 mg/kg in [1] (10 mg/kg, oral, mouse, 5 minutes) is -26%. Besides, the change in vivo at 25 mg/kg in [1] (25 mg/kg, oral, mouse, 5 minutes) was -23%; in data set [2], -20%. In data set [3] (200 mg/kg), the “% of inhibition of salivation induced by pilocarpine” value was -23%. For the same molecule, in the data set on phenylbenzoquinone (PBQ) (read-out: % of analgesic activity, 50 mg/kg, male Swiss mouse, PBQ), the inhibition in vivo at 50 mg/kg stood at 34%. Further, in the data set with phenylbenzoquinone (PBQ), the inhibition in vivo at 100 mg/kg turned out to be 44%. The inhibition in vivo at 200 mg/kg in the data set on phenylbenzoquinone (PBQ) worked out at 55%. Also, the mortality at 336 h came to 0% in data set [4] (1500 mg/kg) and 30% in data set [4] (2000 mg/kg). Further, the “% of increase” value in [5] (1.5 mg/kg) is given as “+89%”; in data set [5] (3 mg/kg), “+73%”; in data set [5] (5 mg/kg), “+56%”; in [5] (10 mg/kg), “+61%”. For the same molecule, the “Test of despair: % of antagonism” value is -20% with despair (100 mg/kg) and -18% in the data set on despair (200 mg/kg).
